Source: patent US10544415B2, “Methods for producing enteroendocrine cells that make and secrete insulin” (The Trustees Of Columbia University In The City Of New York, priority 2010, dated 2020)

How the values were obtained:
KATP channel = KATP channel (Mus musculus, UniProt B2RUS7); conditions: NKO gut segments, 1 hr; 10 nM glibenclamide or 0.5 mM diazoxide
Method: Adult intestine was stained in medium containing 0.12 mM Dithizone (DTZ) (10) and selected 5-inches-long DTZ+ fragments from NKO mice or anatomically matched control mice. The intestines were cut open and incubated in glucose-free DMEM supplemented with 10% FBS and 20 mM glucose for 30 min. At the end of the incubation, insulin and C peptide 2 content was measured in the medium by ELISA (Millipore). Collagenase-purified pancreatic islets from 14-week-old WT mice served as controls (5).
To determine whether Ggut Ins^+ cells are functionally competent to secrete insulin, we performed ex vivo assays of insulin secretion in response to glucose and KATP channel modulators, using DTZ staining to select gut segments enriched in Ins^+ cells from NKO mice and anatomically matched segments from control mice.
Adult intestine were strained in medium containing 0.12 mM Dithizone (DTZ) (Tuttle et al Nat Med, 2001) and selected 5-inches-long DTZ+ fragments from NKO mice or anatomically matched fragments from control WT mice. […] At the end of the incubation, we measured insulin and C-peptide 2 content in the medium by ELISA (Millipore). Collagenase-purified pancreatic islets from 14-week-old WT mice served as controls (Kitamura et al., MCB 2009). Experiments were carried out using adult intestines (n=4).

[1] = Insulin bioassay: acid-ethanol tissue extracts injected into newborn mice, blood glucose; assay type: in vivo, mouse
Method: Insulin bioassay. Acid-ethanol extracts were prepared from neonatal (P3) gut, liver, and pancreas (35). Tissue extract or recombinant human insulin (Humulin R, Eli Lilly) (10 U/ml in acid-ethanol) were mixed with either insulin neutralizing antibody (Thermo Scientific) or isotype-matched mouse IgG1 (Ebiosciences) for subcutaneous injections in 50 microliters volume. Glucose was measured immediately prior to and 5 minutes after injections.
To examine whether intestinal insulin secreted by Gut Ins+ cells is bioactive, acid-ethanol extracts from NKO gut were prepared, extracts were also prepared from gut, pancreas and liver of WT mice, and injected into newborn mice. Extracts from newborn NKO intestine lowered blood glucose by about 20%, similar to pancreatic extracts from age-matched control mice or recombinant human insulin (FIG. 3C). In contrast, extracts from control intestines or liver had no effect. The ability of NKO gut extracts (reflecting the presence of Gut Ins+ cells) to lower blood glucose was preempted by the addition of an insulin-neutralizing antibody, as was pancreatic extracts from control mice and recombinant insulin.

Chain of KATP channel (B2RUS7 1-1588): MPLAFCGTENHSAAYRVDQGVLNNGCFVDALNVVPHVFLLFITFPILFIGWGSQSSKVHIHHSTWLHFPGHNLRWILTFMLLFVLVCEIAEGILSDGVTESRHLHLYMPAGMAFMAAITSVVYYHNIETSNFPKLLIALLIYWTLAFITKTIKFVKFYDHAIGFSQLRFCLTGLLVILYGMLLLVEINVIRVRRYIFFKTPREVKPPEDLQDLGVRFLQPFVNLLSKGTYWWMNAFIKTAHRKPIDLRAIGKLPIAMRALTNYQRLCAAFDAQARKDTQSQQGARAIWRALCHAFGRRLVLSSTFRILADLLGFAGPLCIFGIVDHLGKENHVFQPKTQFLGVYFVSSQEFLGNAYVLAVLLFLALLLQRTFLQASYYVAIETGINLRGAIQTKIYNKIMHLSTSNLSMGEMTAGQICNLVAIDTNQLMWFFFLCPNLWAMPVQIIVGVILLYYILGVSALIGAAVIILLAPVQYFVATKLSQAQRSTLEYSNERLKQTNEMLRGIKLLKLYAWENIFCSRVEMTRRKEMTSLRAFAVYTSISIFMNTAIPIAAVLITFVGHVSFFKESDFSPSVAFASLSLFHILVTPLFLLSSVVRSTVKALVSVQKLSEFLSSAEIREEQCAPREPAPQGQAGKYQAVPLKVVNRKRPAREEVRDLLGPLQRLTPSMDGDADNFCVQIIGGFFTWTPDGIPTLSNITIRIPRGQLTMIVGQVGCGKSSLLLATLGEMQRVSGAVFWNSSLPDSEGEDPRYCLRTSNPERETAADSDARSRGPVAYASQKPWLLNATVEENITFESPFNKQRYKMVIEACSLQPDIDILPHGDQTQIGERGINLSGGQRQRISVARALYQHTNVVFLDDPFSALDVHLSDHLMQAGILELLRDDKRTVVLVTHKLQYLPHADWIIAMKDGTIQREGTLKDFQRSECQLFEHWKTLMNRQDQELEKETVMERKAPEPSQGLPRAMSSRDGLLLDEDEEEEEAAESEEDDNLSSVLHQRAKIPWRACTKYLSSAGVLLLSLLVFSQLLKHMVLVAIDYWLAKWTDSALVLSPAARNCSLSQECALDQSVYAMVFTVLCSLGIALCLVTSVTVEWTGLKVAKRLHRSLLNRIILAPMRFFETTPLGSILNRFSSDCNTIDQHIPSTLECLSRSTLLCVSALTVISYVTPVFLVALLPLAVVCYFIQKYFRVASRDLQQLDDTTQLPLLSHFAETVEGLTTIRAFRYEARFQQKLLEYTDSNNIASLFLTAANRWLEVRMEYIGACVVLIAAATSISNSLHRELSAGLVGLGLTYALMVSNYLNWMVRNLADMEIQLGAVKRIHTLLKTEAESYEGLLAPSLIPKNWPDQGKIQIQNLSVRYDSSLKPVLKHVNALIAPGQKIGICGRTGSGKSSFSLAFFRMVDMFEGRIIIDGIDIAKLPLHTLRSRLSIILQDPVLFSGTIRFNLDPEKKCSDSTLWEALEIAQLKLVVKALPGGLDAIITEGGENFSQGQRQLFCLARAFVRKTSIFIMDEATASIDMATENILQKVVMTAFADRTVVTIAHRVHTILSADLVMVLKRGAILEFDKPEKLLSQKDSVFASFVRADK
Chain of KATP channel (Q61743 whole entry partner): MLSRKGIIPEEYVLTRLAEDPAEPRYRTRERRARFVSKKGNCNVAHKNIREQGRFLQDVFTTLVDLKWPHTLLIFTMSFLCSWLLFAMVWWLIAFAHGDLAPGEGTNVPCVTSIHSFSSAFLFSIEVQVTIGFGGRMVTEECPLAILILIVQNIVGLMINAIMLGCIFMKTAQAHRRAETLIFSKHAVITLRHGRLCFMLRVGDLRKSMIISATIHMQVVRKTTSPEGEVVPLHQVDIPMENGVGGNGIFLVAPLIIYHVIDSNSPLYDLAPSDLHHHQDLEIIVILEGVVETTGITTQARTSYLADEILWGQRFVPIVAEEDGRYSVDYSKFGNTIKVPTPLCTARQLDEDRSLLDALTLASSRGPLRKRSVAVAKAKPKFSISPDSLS

effect on glucose-induced insulin release from NKO gut (KATP channel)	Compound	lowering of blood glucose (in words) ([1]; injected into newborn mice, compared with NKO intestine extract)	ability to lower blood glucose after addition of insulin-neutralizing antibody ([1]; sample mixed with insulin-neutralizing antibody)
blunted	CC1=NS(=O)(=O)c2cc(Cl)ccc2N1 [diazoxide]	–	–
–	recombinant human insulin: recombinant human insulin (Humulin R, Eli Lilly), 10 U/ml in acid-ethanol	similar	preempted
